# Marks after values point to notes of the source that are not given here.
# Test system: Recombinant ChLAC8
# Test: Laccase activity assay and enzyme kinetics of recombinant ChLAC8 with monolignol substrates
# Assay type: biochemical, Cleome hassleriana
# Details: for oxidation of monolignol by ChLAC8 (decrease in substrate by HPLC): 200 μM substrate, 30 min, 25° C.; for dimers in reaction products (LC-MS/MS) / trimers in reaction products (LC-MS/MS): reaction with ChLAC8; for Kcat / Km / Vmax: recombinant ChLAC8, substrate 25 to 800 μM, pH 6.8, 25° C.
# Method: The open reading frame (ORF) of ChLAC8 (ChLAC8X1, XM_010555066.1) was amplified with the primers listed in Wang Supp. Table 4, ligated into the pENTR/D-TOPO vector (Invitrogen), and subcloned into pDEST17 fused with a 6× histidine tag at the N-terminus via Gateway LR recombination reaction (Invitrogen). The resulting vector (pDEST17-ChLAC8) was transformed into E. coli Rosetta (DE3) (Novagen) for protein expression. The transgenic E. coli strain was cultured in LB medium at 37° C. until OD600=0.4-0.6 and then supplemented with 0.5 mM isopropyl-β-D-thiogalactoside (IPTG) to induce the expression of ChLAC8 at 16° C. for 20 h. After induction, cell cultures were harvested by centrifugation at 10,000×g for 5 min at 4° C., and the resulting pellets were used for ChLAC8 protein purification via Ni-NTA resin (Thermo Scientific) according to the manufacturer's manual. The eluted protein was further desalted into 50 mM potassium phosphate buffer (pH 6.8) using a 30 kDa cut-off Amicon Ultra centrifugal filter (Millipore). The purity of recombinant ChLAC8 was examined by SDS-PAGE and the protein concentration was quantified by Bradford assays.
# Laccase activity assays were performed in a 100 μL reaction mixture consisting of 50 mM potassium phosphate buffer (pH 6.8), 10-20 μg of recombinant ChLAC8, and 200 μM monolignol substrate (caffeyl alcohol, coniferyl alcohol or sinapyl alcohol). The reactions were incubated at 25° C. for 30 min and terminated by adding 100 μL of methanol. The reaction products were injected into an HPLC or LC-MS/MS system for analysis as described below. The decrease in the level of the substrate was measured to calculate the enzyme activity. To determine kinetic parameters, ChLAC8 was incubated with different concentrations of caffeyl alcohol or sinapyl alcohol in a range from 25 to 800 μM. The enzyme assays were performed in triplicate at each substrate concentration, and the Vmax and Km values were calculated by Graphpad Prism 8 software with nonlinear regression analysis.
# The reaction products were analyzed on an Agilent 1260 HPLC system equipped with a Luna C18(2) reverse-phase column (5 μm particle, 250×4.6 mm, Phenomenex) and separated in a mobile phase consisting of solvent A (1% in phosphoric acid in water) and solvent B (acetonitrile) with the following gradient: 5% B for 5 min, to 33% B in 25 min, to 45% B in 5 min, to 95% B in 5 min, keep at 95% B for 5 min, back to 5% B in 5 min.
# LC-MS/MS analysis was performed using an Agilent 1290 Infinity II liquid chromatography system coupled to an Agilent 6400 Series Triple Quadrupole System with electrospray ionization source in negative ionization mode. A reverse phase ZORBAX RR Eclipse Plus C18, 95 Å, 4.6×250 mm, 5 μm (Agilent) was used for separation. The gradient for HPLC separation was 0.1% (v/v) formic acid in water (A) and 0.1% (v/v) formic acid in acetonitrile (B) with the following solvent gradient: 5% B for 5 min, to 40% B in 30 min, to 95% B in 5 min, 95% B for 5 min, to 5% B in 1 min. The total LC-MS/MS run was 46 min with a flow rate of 1.0 mL/min. Injection volume was 10 μL. MS data were recorded in the range of m/z 100-700 (Perna et al., 2018).
oxidation of monolignol by ChLAC8 (decrease in substrate by HPLC),dimers in reaction products (LC-MS/MS),trimers in reaction products (LC-MS/MS),Km value for caffeyl alcohol relative to that for sinapyl alcohol (recombinant ChLAC8) [fold],Kcat,Km [µM],Vmax [pKat mg^−1],SMILES
could oxidize,consistent with the masses of dimers,trimers were observed,~3.5,0.019 ± 0.003* sec^−1,210 ± 90.6,284.4 ± 50.4,"OC/C=C/c1ccc(O)c(O)c1 [Caffeyl alcohol, caffeyl alcohol]"
not,No dimers were detected,,,,,,"COc1cc(/C=C/CO)ccc1O [Coniferyl alcohol, coniferyl alcohol]"
could oxidize,consistent with the masses of dimers,No trimers were detected,,0.013 ± 0.001 s⁻¹,60.2 ± 16.7,192.0 ± 12.8,"COc1cc(/C=C/CO)cc(OC)c1O [Sinapyl alcohol, sinapyl alcohol]"
